Patent US7612200B2, “Inhibitors of protein kinases” (Locus Pharmaceuticals, Inc., priority 2004, dated 2009)

Assays:
Format in all cases: biochemical
[1] = biological target: MKK6 (Homo sapiens, UniProt P52564); assay: Protein kinase inhibition, MKK6; details: Rate (μM) 2, read-out: % Control
[2] = biological target: Ret (Homo sapiens, UniProt P07949); assay: Protein kinase inhibition, Ret; details: Rate (μM) 2, read-out: % Control
[3] = biological target: FGFR2 (Homo sapiens, UniProt P21802); assay: Protein kinase inhibition, FGFR2; details: Rate (μM) 2, read-out: % Control
[4] = biological target: EphA5 (Homo sapiens, UniProt P54756); assay: Protein kinase inhibition, EphA5; details: Rate (μM) 2
[5] = biological target: p38δ (Homo sapiens, UniProt O15264); assay: SAPK4 Kinase Activity (p38δ)
Sequence of p38δ (O15264 whole entry): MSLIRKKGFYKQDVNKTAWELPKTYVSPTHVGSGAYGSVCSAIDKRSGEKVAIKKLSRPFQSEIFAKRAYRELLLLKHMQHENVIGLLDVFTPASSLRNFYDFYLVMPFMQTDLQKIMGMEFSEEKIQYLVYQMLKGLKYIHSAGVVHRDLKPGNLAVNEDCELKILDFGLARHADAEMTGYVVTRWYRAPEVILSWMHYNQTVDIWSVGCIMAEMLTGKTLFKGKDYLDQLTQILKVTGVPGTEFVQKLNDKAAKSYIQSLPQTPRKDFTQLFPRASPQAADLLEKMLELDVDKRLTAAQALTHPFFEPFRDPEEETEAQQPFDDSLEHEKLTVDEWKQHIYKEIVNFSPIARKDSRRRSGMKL
Experimental: (§1) SAPK4 Kinase Activity: In a final reaction volume of 25 μl, SAPK4 (h) (5-10 mU) is incubated with 25 mM Tris pH 7.5, 0.02 mM EGTA, 0.33 mg/ml myelin basic protein, 10 mM MgAcetate and [γ-^33P-ATP] (specific activity approx. 500 cpm/pmol, concentration as required). The reaction is initiated by the addition of the MgATP mix. After incubation for 40 minutes at room temperature, the reaction is stopped by the addition of 5 μl of a 3% phosphoric acid solution. 10 μL of the reaction is the spotted onto a P30 filtermat and washed three times for 5 minutes in 75 mM phosphoric acid and once in methanol prior to drying and scintillation counting.

[6] = biological target: p38β (Homo sapiens, UniProt Q15759); assay: SAPK2b Kinase Activity (p38β); details: compound at 2 μm
Experimental: as §1, with “SAPK2b” for “SAPK4”, “μl” for “μL”

[7] = biological target: FGFR1 (Homo sapiens, UniProt P11362); assay: Protein kinase inhibition, FGFR1; details: Rate (μM) 2, read-out: % Control
Sequence of FGFR1 (P11362 22-822): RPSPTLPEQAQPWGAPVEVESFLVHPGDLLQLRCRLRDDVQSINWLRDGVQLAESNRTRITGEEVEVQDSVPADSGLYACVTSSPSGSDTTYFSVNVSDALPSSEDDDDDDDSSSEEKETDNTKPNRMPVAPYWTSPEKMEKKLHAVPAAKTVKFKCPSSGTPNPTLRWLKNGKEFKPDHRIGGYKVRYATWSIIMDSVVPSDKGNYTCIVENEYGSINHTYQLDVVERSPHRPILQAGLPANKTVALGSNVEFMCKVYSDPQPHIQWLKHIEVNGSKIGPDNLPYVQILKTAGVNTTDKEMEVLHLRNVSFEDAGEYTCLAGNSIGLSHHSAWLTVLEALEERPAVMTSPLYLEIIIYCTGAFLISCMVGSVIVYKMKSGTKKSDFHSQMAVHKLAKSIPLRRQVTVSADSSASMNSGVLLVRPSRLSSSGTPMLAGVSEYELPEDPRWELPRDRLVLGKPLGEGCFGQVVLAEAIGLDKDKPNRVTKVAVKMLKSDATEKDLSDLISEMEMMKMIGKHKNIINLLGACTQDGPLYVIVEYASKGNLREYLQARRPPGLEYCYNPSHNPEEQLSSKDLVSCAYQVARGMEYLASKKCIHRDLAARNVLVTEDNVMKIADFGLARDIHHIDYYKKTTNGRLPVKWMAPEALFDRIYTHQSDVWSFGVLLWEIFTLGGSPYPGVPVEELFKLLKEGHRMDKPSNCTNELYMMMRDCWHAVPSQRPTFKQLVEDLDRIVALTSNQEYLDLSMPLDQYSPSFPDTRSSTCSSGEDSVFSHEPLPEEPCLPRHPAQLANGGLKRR

[8] = biological target: c-RAF (Homo sapiens, UniProt P04049); assay: c-RAF Kinase Activity
Sequence of c-RAF (P04049 whole entry): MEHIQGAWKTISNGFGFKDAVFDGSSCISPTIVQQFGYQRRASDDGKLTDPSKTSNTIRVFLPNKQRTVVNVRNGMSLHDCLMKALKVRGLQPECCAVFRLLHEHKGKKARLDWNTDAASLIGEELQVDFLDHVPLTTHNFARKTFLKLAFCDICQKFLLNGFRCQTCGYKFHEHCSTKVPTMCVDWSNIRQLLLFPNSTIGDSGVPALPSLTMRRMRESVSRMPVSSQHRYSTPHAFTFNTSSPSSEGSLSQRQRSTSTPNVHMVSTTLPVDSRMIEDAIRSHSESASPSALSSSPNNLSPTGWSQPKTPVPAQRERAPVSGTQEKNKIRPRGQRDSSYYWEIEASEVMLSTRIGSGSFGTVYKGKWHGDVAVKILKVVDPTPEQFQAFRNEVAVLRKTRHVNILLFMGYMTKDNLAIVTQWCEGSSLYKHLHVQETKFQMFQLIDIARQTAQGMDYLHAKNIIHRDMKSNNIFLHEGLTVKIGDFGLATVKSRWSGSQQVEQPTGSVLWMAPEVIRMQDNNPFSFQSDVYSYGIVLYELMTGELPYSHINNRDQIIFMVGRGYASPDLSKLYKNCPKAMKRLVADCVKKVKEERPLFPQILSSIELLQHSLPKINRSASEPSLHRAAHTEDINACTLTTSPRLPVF
Experimental: as §1, with “c-RAF Kinase” for “SAPK4 Kinase”, “μl, c-RAF” for “μl, SAPK4”, “EGTA, 0.66” for “EGTA, 0.33”, “mM MgAcetate,” for “mM MgAcetate”, “10 μl” for “10 μL”, “is then” for “is the”

[9] = biological target: p38γ (Homo sapiens, UniProt P53778); assay: SAPK3 Kinase Activity (p38γ)
Sequence of p38γ (P53778 whole entry): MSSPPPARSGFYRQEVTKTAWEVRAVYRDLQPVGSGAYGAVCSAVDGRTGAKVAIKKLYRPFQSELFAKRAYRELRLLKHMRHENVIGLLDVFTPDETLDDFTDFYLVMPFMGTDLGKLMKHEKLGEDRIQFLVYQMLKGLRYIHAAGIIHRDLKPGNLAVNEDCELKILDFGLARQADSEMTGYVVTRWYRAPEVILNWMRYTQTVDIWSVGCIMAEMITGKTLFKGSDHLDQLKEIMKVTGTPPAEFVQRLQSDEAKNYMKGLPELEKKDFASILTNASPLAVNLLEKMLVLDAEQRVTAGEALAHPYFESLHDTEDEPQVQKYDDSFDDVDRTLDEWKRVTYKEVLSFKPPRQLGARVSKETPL
Experimental: as §1, with “SAPK3 Kinase Activity:” for “SAPK4 Kinase Activity:”, “25 μl, SAPK3 (h) (5-10” for “25 μl, SAPK4 (h) (5-10”, “approx. 500 cpm/[…], concentration as” for “approx. 500 cpm/pmol, concentration as”, “of 5 μL of a” for “of 5 μl of a”

[10] = biological target: P70S6K (Homo sapiens, UniProt P23443); assay: Protein kinase inhibition, P70S6K; details: Rate (μM) 2, read-out: % Control
[11] = biological target: Mnk2 (Homo sapiens, UniProt Q9HBH9); assay: Protein kinase inhibition, Mnk2; details: Rate (μM) 2, read-out: % Control
[12] = biological target: Hck (Homo sapiens, UniProt P08631); assay: Protein kinase inhibition, Hck; details: Rate (μM) 2, read-out: % Control
Sequence of Hck (P08631 whole entry): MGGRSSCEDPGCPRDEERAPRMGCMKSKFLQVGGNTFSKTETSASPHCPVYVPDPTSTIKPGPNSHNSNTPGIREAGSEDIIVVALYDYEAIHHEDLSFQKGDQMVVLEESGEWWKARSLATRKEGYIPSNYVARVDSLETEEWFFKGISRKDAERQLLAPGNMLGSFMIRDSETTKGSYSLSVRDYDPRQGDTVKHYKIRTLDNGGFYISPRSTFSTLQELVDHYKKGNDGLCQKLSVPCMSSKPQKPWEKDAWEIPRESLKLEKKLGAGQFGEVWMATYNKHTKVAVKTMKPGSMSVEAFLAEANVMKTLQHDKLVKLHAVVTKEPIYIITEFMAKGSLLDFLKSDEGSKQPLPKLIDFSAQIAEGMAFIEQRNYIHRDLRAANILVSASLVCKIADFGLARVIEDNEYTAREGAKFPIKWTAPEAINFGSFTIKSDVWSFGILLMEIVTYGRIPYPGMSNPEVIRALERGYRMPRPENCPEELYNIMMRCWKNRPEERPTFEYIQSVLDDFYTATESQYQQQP

[13] = biological target: Flt1 (Homo sapiens, UniProt P17948); assay: Protein kinase inhibition, Flt1; details: Rate (μM) 2, read-out: % Control
[14] = biological target: KDR (Homo sapiens, UniProt P35968); assay: Protein kinase inhibition, KDR; details: Rate (μM) 2, read-out: % Control
Sequence of KDR (P35968 20-1356): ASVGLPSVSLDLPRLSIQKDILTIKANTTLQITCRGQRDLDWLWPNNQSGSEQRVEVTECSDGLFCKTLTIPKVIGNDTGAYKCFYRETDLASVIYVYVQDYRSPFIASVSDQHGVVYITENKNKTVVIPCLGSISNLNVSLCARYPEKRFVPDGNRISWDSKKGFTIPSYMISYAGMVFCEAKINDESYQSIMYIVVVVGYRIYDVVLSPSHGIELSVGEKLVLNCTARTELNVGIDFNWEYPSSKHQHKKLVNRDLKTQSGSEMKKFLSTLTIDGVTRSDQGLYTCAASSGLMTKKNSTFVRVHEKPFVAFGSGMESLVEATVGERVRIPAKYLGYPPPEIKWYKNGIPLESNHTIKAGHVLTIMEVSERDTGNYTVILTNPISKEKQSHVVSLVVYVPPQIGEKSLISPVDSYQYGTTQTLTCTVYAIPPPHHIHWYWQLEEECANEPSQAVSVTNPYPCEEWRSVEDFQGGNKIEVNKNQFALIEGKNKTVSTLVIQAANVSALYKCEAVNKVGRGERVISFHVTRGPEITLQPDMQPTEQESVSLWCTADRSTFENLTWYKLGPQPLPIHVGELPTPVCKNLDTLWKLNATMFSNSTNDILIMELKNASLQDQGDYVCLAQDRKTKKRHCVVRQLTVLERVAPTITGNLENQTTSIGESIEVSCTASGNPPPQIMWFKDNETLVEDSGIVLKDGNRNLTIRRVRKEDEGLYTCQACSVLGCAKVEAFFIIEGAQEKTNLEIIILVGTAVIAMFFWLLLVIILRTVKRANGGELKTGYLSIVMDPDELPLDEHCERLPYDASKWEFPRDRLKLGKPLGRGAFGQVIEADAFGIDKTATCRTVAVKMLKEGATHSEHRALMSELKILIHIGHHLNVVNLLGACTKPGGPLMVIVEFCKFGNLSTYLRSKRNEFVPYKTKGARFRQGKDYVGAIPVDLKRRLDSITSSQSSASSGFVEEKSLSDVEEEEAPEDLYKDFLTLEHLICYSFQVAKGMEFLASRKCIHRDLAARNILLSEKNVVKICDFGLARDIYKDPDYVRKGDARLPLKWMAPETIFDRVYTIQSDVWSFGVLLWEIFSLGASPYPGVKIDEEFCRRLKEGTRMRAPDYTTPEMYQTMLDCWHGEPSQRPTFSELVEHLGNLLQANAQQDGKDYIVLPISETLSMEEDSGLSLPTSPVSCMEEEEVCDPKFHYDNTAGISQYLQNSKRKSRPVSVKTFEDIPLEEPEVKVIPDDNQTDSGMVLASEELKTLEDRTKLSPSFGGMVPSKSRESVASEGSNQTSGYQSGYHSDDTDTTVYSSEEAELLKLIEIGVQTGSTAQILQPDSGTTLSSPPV

[15] = biological target: Lck (Homo sapiens, UniProt P06239); assay: Lck Kinase Activity
Sequence of Lck (P06239 whole entry): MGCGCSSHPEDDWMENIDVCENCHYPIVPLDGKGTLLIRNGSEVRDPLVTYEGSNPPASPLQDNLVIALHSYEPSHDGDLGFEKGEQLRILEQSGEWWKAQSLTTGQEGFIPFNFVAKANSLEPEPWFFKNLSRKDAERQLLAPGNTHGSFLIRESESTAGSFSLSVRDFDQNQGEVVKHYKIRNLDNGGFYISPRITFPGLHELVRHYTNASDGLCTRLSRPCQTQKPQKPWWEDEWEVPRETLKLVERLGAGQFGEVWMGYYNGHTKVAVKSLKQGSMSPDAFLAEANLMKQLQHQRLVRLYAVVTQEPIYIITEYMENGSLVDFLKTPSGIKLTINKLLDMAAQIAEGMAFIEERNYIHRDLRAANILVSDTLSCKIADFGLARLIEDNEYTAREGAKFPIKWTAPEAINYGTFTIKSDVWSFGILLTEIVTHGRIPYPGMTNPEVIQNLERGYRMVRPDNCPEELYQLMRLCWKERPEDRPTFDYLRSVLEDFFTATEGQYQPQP
Experimental: Lck Kinase Activity: In a final reaction volume of […], Lck (h) (5-10 mU) is incubated with 50 mM Tris pH 7.5, 0.1 mM EGTA, 0.1 mM Na3VO4, 250 μM KVEKIGEGTYGVVYK (Cdc2 peptide), 10 mM MgAcetate and [γ-^33P-ATP] (specific activity approx. 500 cpm/pmol, concentration as required). The reaction is initiated by the addition of the MgATP mix. After incubation for 40 minutes at room temperature, the reaction is stopped by the addition of 5 μl of a 3% phosphoric acid solution. 10 μl of the reaction is then spotted onto a P30 filtermat and washed three times for 5 minutes in 75 mM phosphoric acid and once in methanol prior to drying and scintillation counting.

[16] = biological target: EphA8 (Homo sapiens, UniProt P29322); assay: Protein kinase inhibition, EphA8; details: Rate (μM) 2, read-out: % Control

Sequence of MKK6 (P52564 whole entry): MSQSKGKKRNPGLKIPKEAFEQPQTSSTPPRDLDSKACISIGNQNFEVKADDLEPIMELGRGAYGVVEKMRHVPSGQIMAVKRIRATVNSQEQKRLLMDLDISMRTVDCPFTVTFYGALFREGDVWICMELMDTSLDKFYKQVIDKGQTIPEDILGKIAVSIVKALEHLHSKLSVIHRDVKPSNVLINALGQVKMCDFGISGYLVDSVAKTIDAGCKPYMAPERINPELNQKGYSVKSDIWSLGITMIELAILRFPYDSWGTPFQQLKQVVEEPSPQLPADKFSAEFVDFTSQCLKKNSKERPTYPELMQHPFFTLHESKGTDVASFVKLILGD

remaining activity at 2 µM [1]: 76 to 100% | remaining activity at 2 µM [2]: 76 to 100% | remaining activity at 2 µM [3]: 51 to 75% | % Control [4]: 76-100% | remaining activity at 2 µM ([5]; 40 min, P38d, Human, Rate (μM) 2, read-out: % Control): 76 to 100% | % Inhibition at 2 μm ([5]; p38δ, compound at 2 μm): 76-100% | % Inhibition at 2 μm [6]: 76-100% | remaining activity at 2 µM [7]: 76 to 100% | remaining activity at 2 µM ([8]; 40 min, cRaf, Human, Rate (μM) 2, read-out: % Control): 76 to 100% | % Inhibition at 2 μm ([8]; c-RAF, compound at 2 μm): 76-100% | remaining activity at 2 µM ([9]; 40 min, P38g, Human, Rate (μM) 2, read-out: % Control): 76 to 100% | % Inhibition at 2 μm ([9]; p38γ, compound at 2 μm): 76-100% | remaining activity at 2 µM [10]: 51 to 75% | remaining activity at 2 µM [11]: 76 to 100% | remaining activity at 2 µM [12]: 76 to 100% | remaining activity at 2 µM [13]: 76 to 100% | remaining activity at 2 µM [14]: 76 to 100% | remaining activity at 2 µM ([15]; 40 min, Lck, Human, Rate (μM) 2, read-out: % Control): 51 to 75% | % Inhibition at 2 μm ([15]; LCK, compound at 2 μm): 51-75% | remaining activity at 2 µM [16]: 76 to 100%
SMILES: CC(C)(C)c1cc(C(=O)N2CCS(=O)(=O)CC2)c(NC(=O)Nc2ccc(Oc3ccncc3)cc2)s1 [Example 3, 1-[5-tert-Butyl-3-(1,1-dioxo-1λ^6-thiomorpholine-4-carbonyl)thiophen-2-yl]-3-[4-(pyridin-4-yloxy)phenyl]urea]
